Reference: patent publication US8906904B2, “Alkoxy pyrazoles as soluble guanylate cyclase activators” (Boehringer Ingelheim International GmbH, priority 2012, dated 2014)
Converted amounts (≈) assume the structure as drawn.

How the values were obtained:
[1] = human liver microsome (HLM) metabolic stability assay; assay type: in vitro ADME; conditions: human liver microsomes; % hepatic blood flow calculated from t1/2
Method: The 5 time point, high-throughput human liver microsome (HLM) metabolic stability assay is designed to determine in vitro compound metabolism. Compounds are incubated with HLMs at a concentration of 1 uM, at 37° C., for a total of 60 min. The percent of compound remaining at 5, 15, 30, and 60 min is used to calculate the t½ (min), CLint (mL/min/kg), CLh (mL/min/kg), and % Qh. The assay is based on a 96-well format and can accommodate up to 92 compounds per plate (n=1).
Using the 96-well multi-channel head, the Biomek FX, equipped with a Peltier heating block/shaker, is programmed to accomplish the following steps: • 1. Pipette 175 uL of 1.15 mg/mL microsomes into each of the 96 conical inserts (Analytical Sales and Products, catalog number 96PL05) that fit into the plate of the Peltier heating block/shaker (the incubation plate) • 2. Add 5 uL of compounds from the assay plate to the microsomes and shake the mixture at 600 rpm at 42.1° C. for 10 min (a setting of 42.1° C. on the Peltier is required for the samples to incubate at 37° C.) • 3. After 10 min, prompt the user to add the NADPH plate to the deck and add 20 uL from the NADPH plate to the incubation plate to start the reaction • 4. Add 215 uL of 100%, cold acetonitrile containing an internal standard(s) to a 0 minute, 5 minute, 15 minute, 30 minute, and 60 minute “quench” plate • 5. At 0 min, 5 min, 15 min, 30 min, and 60 min into the incubation, aspirate 12 uL from the incubation mixture and add it to the quench solution to stop the reaction • 6. Add 185 uL HPLC grade water to each well of the 0, 5, 15, 30 and 60 minute quench plates to dilute compounds to the appropriate concentration for the mass spectrometer
After all time points are collected, the quench plates are sealed with 96-well pierceable plate mats or heat sealing foil and centrifuged at 3000 rpm for 15 min to pellet the microsomes.
The plates are analyzed using LC/MS/MS with electron spray ionization (ESI) and the previously determined MRM transitions. The LC method includes the following parameters:
Using an Excel template in Activitybase, the peak areas corresponding to 5, 15, 30 and 60 min are compared to the peak area at 0 min to calculate the percent of remaining compound using the following equation: Percent compound remaining=(AUC at Time t min/AUC at Time 0 min)×100 where t=0, 5, 15, 30 or 60 min.
Time (min) is plotted against the natural logarithm (Ln) of the percent compound remaining to determine the slope. The slope is used to calculate t½ (min) using the equation, t½=0.693/slope.
Preferred compounds have % Qh values of less than 24.

[2] = target: T1, human soluble guanylate cyclase alpha 1 and beta 1 subunits (sGC) (Homo sapiens, UniProt Q02108+Q02153); test: sGC cellular activator assay (cGMP, HTRF); assay type: cell-based; conditions: CHO cells stably expressing human sGC alpha 1/beta 1, preincubated with 40 microM ODQ; cGMP readout; assay run with and without 50% human serum, Table 2 does not say which
T1 construct: expressed in transfected cells; host or cells: Chinese hamster ovary (CHO) cells, stably transfected
T1 sequence (Q02108 1-690): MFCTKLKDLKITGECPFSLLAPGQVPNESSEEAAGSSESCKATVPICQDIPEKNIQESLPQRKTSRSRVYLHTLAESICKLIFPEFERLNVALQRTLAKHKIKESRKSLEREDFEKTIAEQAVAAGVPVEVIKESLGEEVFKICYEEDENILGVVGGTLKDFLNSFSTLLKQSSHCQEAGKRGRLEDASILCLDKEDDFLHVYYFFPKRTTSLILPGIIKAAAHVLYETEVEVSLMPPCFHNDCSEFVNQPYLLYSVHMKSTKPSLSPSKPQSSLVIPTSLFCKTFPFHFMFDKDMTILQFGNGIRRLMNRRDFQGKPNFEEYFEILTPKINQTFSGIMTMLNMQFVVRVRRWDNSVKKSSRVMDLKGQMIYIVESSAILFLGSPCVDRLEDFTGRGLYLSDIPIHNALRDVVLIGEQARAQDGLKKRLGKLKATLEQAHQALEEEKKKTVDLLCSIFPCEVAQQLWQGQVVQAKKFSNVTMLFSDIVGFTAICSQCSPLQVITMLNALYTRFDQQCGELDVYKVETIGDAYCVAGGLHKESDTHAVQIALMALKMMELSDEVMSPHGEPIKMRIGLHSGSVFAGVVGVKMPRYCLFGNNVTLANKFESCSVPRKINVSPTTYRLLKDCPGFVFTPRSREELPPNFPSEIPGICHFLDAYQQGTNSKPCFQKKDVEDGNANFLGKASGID
T1 sequence (Q02153 1-619): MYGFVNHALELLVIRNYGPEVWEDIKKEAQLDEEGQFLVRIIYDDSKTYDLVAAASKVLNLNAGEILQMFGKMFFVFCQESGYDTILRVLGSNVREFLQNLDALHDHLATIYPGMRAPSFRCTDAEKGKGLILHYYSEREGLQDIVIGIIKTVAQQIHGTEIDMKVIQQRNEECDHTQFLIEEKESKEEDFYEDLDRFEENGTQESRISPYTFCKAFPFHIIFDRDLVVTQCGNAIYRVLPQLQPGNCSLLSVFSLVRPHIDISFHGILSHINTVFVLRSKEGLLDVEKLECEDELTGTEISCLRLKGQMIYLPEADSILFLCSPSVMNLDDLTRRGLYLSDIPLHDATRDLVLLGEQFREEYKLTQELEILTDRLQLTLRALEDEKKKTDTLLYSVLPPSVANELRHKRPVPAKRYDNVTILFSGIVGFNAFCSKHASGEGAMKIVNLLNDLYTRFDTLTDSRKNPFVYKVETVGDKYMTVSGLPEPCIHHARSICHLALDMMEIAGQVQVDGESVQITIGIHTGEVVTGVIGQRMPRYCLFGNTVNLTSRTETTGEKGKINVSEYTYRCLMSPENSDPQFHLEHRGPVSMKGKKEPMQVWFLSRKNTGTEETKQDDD
Method: The sGC cellular activator assay is performed in the presence and absence of 50% human serum (HS) using Chinese hamster ovary cells that have been stably transfected to express the human soluble guanylate cyclase alpha 1 and beta 1 subunits (sGC). Cells are preincubated with 40 microM 1H-[1,2,4]oxadiazolo[4,3-a]quinoxalin-1-one (ODQ), an sGC inhibitor, for one h in buffer containing 0.1% bovine serum albumin and 3-isobutyl-1-methylxanthine (IBMX). Concentration response curves are prepared for test compounds in DMSO. An intermediate dilution of the compounds is performed in either buffer containing IBMX or type AB HS containing IBMX. Diluted compounds are added to cells and they are incubated at room temperature for thirty min. cGMP is measured using a CisBio homogeneous time resolved fluorescence kit and the EC50 is calculated for each compound.
Representative compounds of the present invention were tested for activity the above assay. Preferred compounds have an EC50 of <1,000 nM in the above assay and more preferred compounds have an EC50<200 nM.

[3] = Assessment of solubility (McIlvaine buffers, 24 h shake, UPLC-UV); assay type: physicochemical; conditions: kinetic from dmso stock
Method: Solubility is measured by the following method.
100 uL, 10 mM DMSO stock solution of each compound is prepared in a 96 well plate format. The experiment is done in single determination at 3 pH values (2.2, 4.5 and 6.8). For each pH and one reference, 40 uL of each compound is needed.
McIlvaine pH 2.2: To 2.076 g citric acid monohydrate and 0.043 g Na2HPO4×2H2O add 100 ml deionized water
McIlvaine pH 4.5: To 1.166 g citric acid monohydrate and 1.585 g Na2HPO4×2H2O add 100 ml deionized water
McIlvaine pH 6.8: To 0.476 g citric acid monohydrate and 2.753 g Na2HPO4×2H2O add 100 ml deionized water
With a suitable liquid handling device (Multipette® or a liquid handler) 390 uL of each buffer solution and 10 uL of compound is added to each well of a 96 deep well plate. The plates are covered firmly and shaken for 24 h on an over head shaker (at 54 RPM) at room temperature. The DMSO content in the final buffer is 2.5% v/v.
After 24 h the plates are centrifuged to remove droplets on the lid before opening (for ˜5 min at 2500 RPM).
The filtration is done under vacuum with Millipore 96 well filter plate. Filtrate is collected in a deep well plate and transferred to a suitable plate for UPLC analysis.
The reference plate is prepared by adding 10 uL of compound to 390 uL of 50:50 acetonitrile/water in a 96 deep well plate and transferred to a suitable plate for UPLC analysis. Wells are checked visually for precipitation, any presence noted under comments in reported results.
The samples are measured with UPLC-UV using the chromatographic method described below.
Waters Empower®2 software is used for generating Sample Sets (according to the plate layout), Sample Set Methods and Instrument Methods.
One Sample Set comprises the methods for three 96 well plates (one reference plate and two sample plates, and includes one Sample Set Method and one Instrument Method).
3. Data Processing and Analysis
The UV chromatograms collected at 254 nm are integrated and processed.
It is assumed that the compound is completely dissolved in the reference solution (50:50 acetonitrile/water)

Q: For `COc1c(C(=O)O)cnn1-c1cccc(-c2cccc(C)c2OCc2ccc3c(c2)CN(C2CCOCC2)C3)n1` [Compound 59], which “HLM (% Qh)” value [1] is on record?
A: <24 % Qh

Q: What about the EC50 [2] of the same compound?
A: 31 nM

Q: Which “HLM (% Qh)” value [1] does the source give for `CCOc1c(C(=O)O)cnn1-c1cccc(-c2cccc(C)c2OCc2ccc3c(c2)CCNC3)n1` [Compound 60] here?
A: <24 % Qh

Q: What about the solubility at 24 h ([3]; pH 2.2, aqueous buffer) of the same compound?
A: 117 µg/mL (≈ 241 µM)

Q: What about the solubility at 24 h ([3]; pH 4.5, aqueous buffer) of the same compound?
A: 96 µg/mL (≈ 198 µM)

Q: What about the solubility at 24 h ([3]; pH 6.8, aqueous buffer) of the same compound?
A: 100 µg/mL (≈ 206 µM)

Q: With `Cc1cccc(-c2cccc(-n3ncc(C(=O)O)c3OC(C)C)n2)c1OCc1ccc2c(c1C)CCN([C@@H]1CCCOC1)C2` [Compound 116] as the compound, how does the “HLM (% Qh)” value [1] read?
A: <24 % Qh

Q: What about the EC50 [2] of the same compound?
A: 28 nM

Q: For `COc1c(C(=O)O)cnn1-c1cccc(-c2cccc(C)c2OCc2cc(C)c3c(c2C)CN(S(=O)(=O)c2ccc(C)cc2)C3)n1` [Compound 138], which “HLM (% Qh)” value [1] is on record?
A: 68 % Qh

Q: What about the EC50 [2] of the same compound?
A: 54 nM

Q: Which “HLM (% Qh)” value [1] does the source give for `CCOc1c(C(=O)O)cnn1-c1cccc(-c2cccc(C)c2OCc2ccc3c(c2C)CCN(C(CO)CO)C3)n1` [Compound 156] here?
A: <24 % Qh

Q: What about the EC50 [2] of the same compound?
A: 720 nM

Q: Which results are given for `COc1c(C(=O)O)cnn1-c1cccc(-c2cccc(C)c2OCc2ccc3c(c2)CCN(C[C@H]2CCOC2)C3)n1` [Compound 192]?
A: HLM (% Qh) [1]: <24 % Qh; EC50 [2]: 10 nM

Q: What does the source list for `CCOc1c(C(=O)O)cnn1-c1cccc(-c2cccc(C)c2OCc2ccc3c(c2)CN(C2CCOCC2)C3)n1` [Compound 216]?
A: HLM (% Qh) [1]: <24 % Qh; EC50 [2]: 110 nM

Q: With `COc1c(C(=O)O)cnn1-c1cccc(-c2cccc(C)c2OCc2cc(C)c3c(c2C)CN(CC2COCCO2)C3)n1` (centres unmarked) [Compound 246] as the compound, how does the “HLM (% Qh)” value [1] read?
A: <24 % Qh

Q: And the EC50 [2]?
A: 6.5 nM

Q: Which results are given for `COc1c(C(=O)O)cnn1-c1cccc(-c2cccc(C)c2OCc2cc(C)c3c(c2)CN(C2CCOCC2)C3)n1` [Compound 255]?
A: HLM (% Qh) [1]: <24 % Qh; EC50 [2]: 9.5 nM

Q: With `COc1c(C(=O)O)cnn1-c1cccc(-c2cccc(C)c2OCc2ccc3c(c2C)CN(C2CCOCC2)C3)n1` [Compound 256] as the compound, how does the “HLM (% Qh)” value [1] read?
A: <24 % Qh

Q: And the EC50 [2]?
A: 14 nM

Q: For `COc1c(C(=O)O)cnn1-c1cccc(-c2cccc(C)c2OCc2ccc3c(c2C)CN(C2COC2)C3)n1` [Compound 257], which “HLM (% Qh)” value [1] is on record?
A: <24 % Qh

Q: What about the EC50 [2] of the same compound?
A: 14 nM

Q: Which “HLM (% Qh)” value [1] does the source give for `COc1c(C(=O)O)cnn1-c1cccc(-c2cccc(C)c2OCc2cc(C)c3c(c2)CN(C2COC2)C3)n1` [Compound 258] here?
A: <24 % Qh

Q: What about the EC50 [2] of the same compound?
A: 15 nM
